Measurements taken from ChEMBL document CHEMBL1137167, “Potent inhibition of checkpoint kinase activity by a hymenialdisine-derived indoloazepine” (Bioorg Med Chem Lett, 2004).

Legend:
[1] = target: Serine/threonine-protein kinase Chk2 (Homo sapiens, UniProt O96017); test: In vitro inhibitory concentration against checkpoint kinase 2 (Chk2) by using [gamma-33P]-ATP] as radioligand
[2] = target: T1, Serine/threonine-protein kinase Chk1 (Homo sapiens, UniProt O14757); test: In vitro inhibitory concentration against checkpoint kinase 1 (Chk1) by using [gamma-33P]-ATP] as radioligand
T1 sequence (O14757 whole entry): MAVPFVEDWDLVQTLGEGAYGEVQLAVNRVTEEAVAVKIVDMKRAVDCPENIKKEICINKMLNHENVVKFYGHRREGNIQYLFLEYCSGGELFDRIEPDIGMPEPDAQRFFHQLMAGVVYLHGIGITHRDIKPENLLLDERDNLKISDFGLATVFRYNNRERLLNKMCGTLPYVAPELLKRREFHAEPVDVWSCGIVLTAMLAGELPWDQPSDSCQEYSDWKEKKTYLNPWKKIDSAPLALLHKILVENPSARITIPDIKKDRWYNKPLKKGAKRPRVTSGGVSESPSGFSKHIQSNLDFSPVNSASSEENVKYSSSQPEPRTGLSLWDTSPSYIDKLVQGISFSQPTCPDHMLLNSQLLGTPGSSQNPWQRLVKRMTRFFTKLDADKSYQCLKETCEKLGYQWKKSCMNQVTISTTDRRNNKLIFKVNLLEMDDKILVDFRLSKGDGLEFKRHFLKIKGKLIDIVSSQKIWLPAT

[3] = target: Protein kinase C alpha type (Homo sapiens, UniProt P17252); test: In vitro inhibitory concentration against human protein kinase C alpha (PKCa) by using [gamma-33P]-ATP] as radioligand
[4] = target: Casein kinase II subunit alpha (Homo sapiens, UniProt P68400); test: In vitro inhibitory concentration against human casein kinase 2 (CK2) by using [gamma-33P]-ATP] as radioligand
Sequence of Casein kinase II subunit alpha (P68400 whole entry, canonical isoform): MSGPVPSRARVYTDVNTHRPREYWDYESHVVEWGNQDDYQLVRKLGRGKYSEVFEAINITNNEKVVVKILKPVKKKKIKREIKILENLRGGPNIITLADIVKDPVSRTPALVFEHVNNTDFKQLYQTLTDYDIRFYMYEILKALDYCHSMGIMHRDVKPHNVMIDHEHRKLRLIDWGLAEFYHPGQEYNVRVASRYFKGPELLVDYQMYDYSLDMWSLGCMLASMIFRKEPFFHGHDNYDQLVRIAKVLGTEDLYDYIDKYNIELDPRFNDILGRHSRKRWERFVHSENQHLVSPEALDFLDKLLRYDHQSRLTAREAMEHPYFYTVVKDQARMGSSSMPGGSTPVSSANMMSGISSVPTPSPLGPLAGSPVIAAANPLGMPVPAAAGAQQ

[5] = target: Casein kinase I isoform delta (Homo sapiens, UniProt P48730); test: In vitro inhibitory concentration against human casein kinase 1 delta (CK1 delta) by using [gamma-33P]-ATP] as radioligand
Sequence of Casein kinase I isoform delta (P48730 whole entry, canonical isoform): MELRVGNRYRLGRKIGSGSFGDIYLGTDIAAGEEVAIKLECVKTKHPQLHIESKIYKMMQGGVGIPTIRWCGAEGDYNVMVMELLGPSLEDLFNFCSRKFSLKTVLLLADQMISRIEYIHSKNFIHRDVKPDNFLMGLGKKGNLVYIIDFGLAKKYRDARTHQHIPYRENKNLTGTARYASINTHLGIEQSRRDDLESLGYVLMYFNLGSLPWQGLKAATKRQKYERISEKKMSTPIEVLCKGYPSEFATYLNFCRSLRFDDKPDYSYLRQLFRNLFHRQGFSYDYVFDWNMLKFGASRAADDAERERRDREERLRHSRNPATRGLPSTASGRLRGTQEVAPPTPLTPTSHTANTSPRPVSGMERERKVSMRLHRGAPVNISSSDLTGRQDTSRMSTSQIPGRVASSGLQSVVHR

[6] = target: Protein kinase C beta type (Homo sapiens, UniProt P05771); test: In vitro inhibitory concentration against human protein kinase C beta-2 (PKCbetaII) by using [gamma-33P]-ATP] as radioligand
Sequence of Protein kinase C beta type (P05771 whole entry): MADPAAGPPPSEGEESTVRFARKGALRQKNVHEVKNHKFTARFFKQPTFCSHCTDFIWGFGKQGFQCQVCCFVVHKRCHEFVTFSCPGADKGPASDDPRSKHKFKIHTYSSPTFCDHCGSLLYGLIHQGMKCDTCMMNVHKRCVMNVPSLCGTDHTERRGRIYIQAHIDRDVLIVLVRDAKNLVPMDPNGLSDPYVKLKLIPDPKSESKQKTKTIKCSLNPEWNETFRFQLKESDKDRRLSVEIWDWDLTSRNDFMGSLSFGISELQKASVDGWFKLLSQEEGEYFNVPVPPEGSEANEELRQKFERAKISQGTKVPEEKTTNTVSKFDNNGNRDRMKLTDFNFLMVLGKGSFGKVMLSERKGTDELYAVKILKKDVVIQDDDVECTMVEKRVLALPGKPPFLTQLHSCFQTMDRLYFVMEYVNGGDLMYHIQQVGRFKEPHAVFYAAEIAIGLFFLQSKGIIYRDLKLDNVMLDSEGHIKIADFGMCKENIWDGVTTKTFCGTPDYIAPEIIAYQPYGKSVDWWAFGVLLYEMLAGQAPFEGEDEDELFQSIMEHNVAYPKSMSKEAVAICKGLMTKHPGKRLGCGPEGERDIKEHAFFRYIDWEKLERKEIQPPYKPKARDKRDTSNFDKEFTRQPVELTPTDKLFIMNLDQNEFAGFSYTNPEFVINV

Sequence of Serine/threonine-protein kinase Chk2 (O96017 whole entry): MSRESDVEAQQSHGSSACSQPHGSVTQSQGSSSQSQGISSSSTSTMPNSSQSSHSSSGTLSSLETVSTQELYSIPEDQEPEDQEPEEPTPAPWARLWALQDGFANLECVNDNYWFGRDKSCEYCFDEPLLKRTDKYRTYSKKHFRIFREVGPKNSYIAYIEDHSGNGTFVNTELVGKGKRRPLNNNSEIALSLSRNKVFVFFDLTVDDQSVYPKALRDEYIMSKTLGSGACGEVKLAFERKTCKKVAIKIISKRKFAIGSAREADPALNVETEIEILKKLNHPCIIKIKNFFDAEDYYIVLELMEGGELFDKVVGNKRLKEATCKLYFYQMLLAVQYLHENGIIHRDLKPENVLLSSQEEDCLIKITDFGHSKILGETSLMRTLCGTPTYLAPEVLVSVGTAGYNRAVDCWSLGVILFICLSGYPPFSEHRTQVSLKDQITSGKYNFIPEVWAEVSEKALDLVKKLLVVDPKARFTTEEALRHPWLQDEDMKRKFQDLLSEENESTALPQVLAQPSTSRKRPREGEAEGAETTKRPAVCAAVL

IC50 [1]	IC50 [2]	IC50 [3]	IC50 [4]	IC50 [5]	IC50 [6]	SMILES
183 nM	725 nM					NC1=N/C(=C2/CCNC(=O)c3[nH]ccc32)C(=O)N1 [DEBROMOHYMENIALDISINE]
8 nM	237 nM	2540 nM	> 10000 nM	1350 nM	3380 nM	Nc1nc(C2=C3C(=Nc4ccccc43)C(=O)NCC2)c(O)[nH]1
42 nM	1950 nM		7000 nM	35 nM		NC1=NC(=O)/C(=C2\CCNC(=O)c3[nH]c(Br)cc32)N1 [HYMENIALDISINE]
